From US8865748B2, “Compounds and compositions for stabilizing hypoxia inducible factor-2 alpha as a method for treating cancer” (Akebia Therapeutics Inc., priority 2011, dated 2014)

Assays:
VEGF [1] = test: VEGF production by human peripheral blood monocytes (ELISA, real-time PCR); assay type: cell-based; conditions: FIG. 11C
Procedure: (§1) Human peripheral blood mononuclear cells (PBMCs) were isolated from fresh peripheral blood leukocyte source packs (American Red Cross, Columbus Ohio) by density gradient centrifugation over Lymphocyte Separation Medium (Cellgro). Monocytes were purified from total PBMCs by layering over FBS. Monocytes were cultured in endotoxin-free RPMI-1640 supplemented with 1% fetal bovine serum (FBS), 0.1% human serum albumin (HSA), and 10 μg/mL of the endotoxin inhibitor polymyxin B. In some experiments, freshly isolated monocytes were differentiated into macrophages by three-day culture in media containing 10% FBS, 1% PSA (penicillin G sodium, streptomycin sulfate, and amphotericin B), and 20 ng/mL M-CSF. Macrophages were serum-starved for 2 hours prior to stimulation. Monocytes or monocyte-derived macrophages were treated for 24 hours with 10 ng/mL GM-CSF, 10 μM disclosed HIF-2α stabilizer, or an equivalent volume of the vehicle controls (PBS or DMSO, respectively). Cell-free culture supernatants were harvested and analyzed for VEGF or sVEGFR-1 by ELISA (R&D Systems).
(§2) Human monocytes were left untreated or were stimulated with 100 ng/mL GM-CSF at normoxia or at 0.5% O2. At various time-points, cells were harvested in Trizol reagent (Invitrogen) and RNA was extracted in chloroform and then purified using the RNeasy Minikit (Qiagen). In murine studies, organs harvested at the time of euthanasia were flash-frozen in liquid nitrogen, pulverized in liquid nitrogen, and then dissolved in Trizol. cDNA was generated from 1 μg of RNA using the Superscript First Strand Synthesis System (Invitrogen) and used for real-time PCR using previously described primers and SYBR Green PCR Master Mix (Applied Biosciences), according to the manufacturer's instructions. Data were analyzed according to the comparative threshold method and normalized against the β-actin internal control transcript. Results are semi-quantitative and represent the fold difference in transcript levels in a particular sample as compared with levels in untreated cells from the same donor.
VEGF protein was undetectable in the supernatants of GM-CSF-stimulated monocytes, due to neutralization of VEGF by sVEGFR-1 (FIG. 11C).
Since monocyte production of VEGF was dependent on HIF-1α, the inventors herein determined whether selective stabilization of HIF-1α via inhibition of PHD2 would increase monocyte production of VEGF but not sVEGFR-1. In order to make such determination, human peripheral blood monocytes were stimulated with GM-CSF in the presence of a selective inhibitor of PHD2 which results in the stabilization of HIF-1α.

B16F10 melanoma tumors = test: Murine melanoma tumor model (B16F10 in C57BL/6 mice); assay type: in vivo
Procedure: Mice were injected with 1×10^5 B16F10 murine melanoma cells murine subcutaneously on the left flank. Once tumors become palpable (approximately 5 days), mice were randomly allocated to receive treatment with either: 20% polyethylene glycol (PEG) in 5% […] (vehicle control for the disclosed HIF-2α stabilizer) and PBS (vehicle control for GM-CSF), 20% PEG and GM-CSF (100 ng per mouse in a 50 μL volume), the disclosed HIF-2α stabilizer (17.5 mg/kg in a 100 μL volume) and PBS, or the disclosed HIF-2α stabilizer and GM-CSF (same doses). The PBS and GM-CSF were administered intratumorally, while the 20% PEG and the disclosed HIF-2α stabilizer were administered intraperitoneally. Mice were treated 3 times per week until tumors reached a size of 20 mm in any dimension (approximately 2.5 weeks), at which point mice were euthanized, in accordance with institutional policy. Tumor diameters were measured 3 times per week with calipers, and tumor volumes were calculated as follows: Tumor volume=0.5×[(large diameter)×(small diameter)^2].
6-8-week-old C57BL/6 mice were injected with 1×10^5 B16F10 murine melanoma cells murine subcutaneously on the left flank. Once tumors become palpable (approximately 5 days), mice were randomly allocated to receive treatment with either: 20% PEG-400 in 5% sucrose (vehicle for disclosed HIF-2α stabilizer) and PBS (vehicle for GM-CSF), 20% PEG-400 and GM-CSF (100 ng per mouse in a 50 μL volume), disclosed HIF-2α stabilizer (17.5 mg/kg mouse weight in a 100 μL volume) and PBS, or the disclosed HIF-2α stabilizer and GM-CSF (same concentrations). The disclosed HIF-2α stabilizer (or the vehicle control) was administered intraperitoneally, while GM-CSF (or the vehicle control) was administered intratumorally. Mice were treated […] 3 times per week until tumors reached a size of 20 mm in any dimension (approximately 2.5 weeks), at which point mice were be euthanized, in accordance with institutional policy. Tumor diameters were measured 3 times per week with calipers, and tumor volumes will be calculated as follows: Tumor volume=0.5×[(large diameter)×(small diameter)^2]. For experiments analyzing the effect of neutralizing sVEGFR-1 in combination with disclosed HIF-2α stabilizer treatment, mice were treated intraperitoneally 3×/week with either disclosed HIF-2α stabilizer or vehicle control, and intratumorally with either 4 μg anti-VEGFR-1 neutralizing antibody (R&D Systems) or 4 μg polyclonal goat IgG isotype control (Santa Cruz Biotechnology) in a 50 μL volume. All protocols were approved by the Ohio State University Animal Care and Use Committee, and mice were treated in accordance with institutional guidelines for animal care.
The ANOVA test was used to compare independent measurements between multiple treatment groups. The data was log-transformed to normalize the variance across groups. P-values were adjusted using the Holm's procedure to conserve the type I error at 0.05 due to the multiple comparisons. For tumor growth data, changes in tumor volume over time were assessed via a longitudinal model. Tumor values were log-transformed, and estimated slopes (changes in tumor volume over time) were calculated with 95% confidence intervals. Estimated differences in tumor volume were calculated by a random-effects regression of the longitudinal data. For all analyses, p≦0.05 was considered statistically significant.
To confirm that the modulation of tumor growth and angiogenesis was due to sVEGFR-1 production in response to the disclosed HIF-2α stabilizer, mice were treated with the disclosed HIF-2α stabilizer in the presence or absence of an sVEGFR-1 neutralizing Ab.
6-8-week-old C57BL/6 mice or SCID mice were injected with 1×10^5 B16F10 murine melanoma cells or 1×10^6 A375 human melanoma cells, respectively, subcutaneously on the left flank. […]

sVEGFR-1 = sVEGFR-1 production by human peripheral blood monocytes (ELISA, real-time PCR); assay type: cell-based; conditions: GM-CSF stimulation; FIG. 11D
Procedure: as §1
Human monocytes were left untreated or were stimulated with 100 ng/mL GM-CSF at normoxia or at 0.5% O2. At various time-points, cells were harvested in Trizol reagent (Invitrogen) and RNA was extracted in chloroform and then purified using the RNeasy Minikit (Qiagen). […] Data were analyzed according to the comparative threshold method and normalized against the β-actin internal control transcript. Results are semi-quantitative and represent the fold difference in transcript levels in a particular sample as compared with levels in untreated cells from the same donor.
Since monocyte production of VEGF was dependent on HIF-1α, the inventors herein determined whether selective stabilization of HIF-1α via inhibition of PHD2 would increase monocyte production of VEGF but not sVEGFR-1. […]

VEGF [2] = test: VEGF mRNA within B16F10 tumors (real-time PCR); assay type: in vivo, mice; conditions: FIG. 13B; p=0.490
Procedure: as §2
6-8-week-old C57BL/6 mice were injected with 1×10^5 B16F10 murine melanoma cells murine subcutaneously on the left flank. […] Tumor diameters were measured 3 times per week with calipers, and tumor volumes will be calculated as follows: Tumor volume=0.5×[(large diameter)×(small diameter)^2]. […]

GM-CSF: granulocyte-macrophage colony-stimulating factor
VEGF production, transcript levels by real-time PCR (VEGF [1]; GM-CSF stimulation): increased | VEGF protein in supernatants (VEGF [1]; GM-CSF-stimulated monocytes, ELISA detects free VEGF only): undetectable | tumor growth (tumor volume) (B16F10 melanoma tumors; FIG. 3, stabilizer 17 mg/kg I.P., GM-CSF 100 ng per mouse I.T., 3 times per week, vs. PBS control): reduction in tumor volume | tumor volume reduction, GM-CSF administered I.T. vs. I.P. (B16F10 melanoma tumors; FIG. 4, stabilizer 17 mg/kg delivered I.P. in all cases, no control group): greater reduction of tumor volume | average tumor volumes vs. vehicle controls (B16F10 melanoma tumors; day 16 of treatment, GM-CSF 100 ng/mouse intratumoral or stabilizer 17.5 mg/kg intraperitoneal, 3x/week, each p<0.001): significantly smaller | monocyte production of sVEGFR-1 (sVEGFR-1): induced | levels of intratumoral VEGF over vehicle control-treated mice (VEGF [2]): failed to increase
